From patent US20210382058A1, “PATIENT SELECTION FOR TREATMENT OF MYC POSITIVE CANCERS WITH INDENOISOQUINOLINES” (Purdue Research Foundation, priority 2020, published 2021)
Where two headings read alike, the source gives them in different places.

Legend:
[1] = test system: NCI-60 cancer cell lines; assay: NCI-60 cancer cell line drug screen (GI50, MGM); type: cell-based, human; conditions: Homo sapiens; for GI50: read-out: Antiproliferative Activities [GI50 (μM)]
Description: Cancer cells were incubated with the test compounds at five concentrations ranging from 100 μM to 10 nM for 48 h. […] The approximate average of GI50 values across the entire panel of NCI-60 cancer cell lines for each compound was recorded as the MGM value.

[2] = biological target: T1, human topoisomerase I (Homo sapiens, UniProt P11387); conditions: relative topoisomerase I inhibition levels, previously determined, six levels (0 - 5, +++++ = 5); cited from earlier work
T1 sequence (P11387 1-765): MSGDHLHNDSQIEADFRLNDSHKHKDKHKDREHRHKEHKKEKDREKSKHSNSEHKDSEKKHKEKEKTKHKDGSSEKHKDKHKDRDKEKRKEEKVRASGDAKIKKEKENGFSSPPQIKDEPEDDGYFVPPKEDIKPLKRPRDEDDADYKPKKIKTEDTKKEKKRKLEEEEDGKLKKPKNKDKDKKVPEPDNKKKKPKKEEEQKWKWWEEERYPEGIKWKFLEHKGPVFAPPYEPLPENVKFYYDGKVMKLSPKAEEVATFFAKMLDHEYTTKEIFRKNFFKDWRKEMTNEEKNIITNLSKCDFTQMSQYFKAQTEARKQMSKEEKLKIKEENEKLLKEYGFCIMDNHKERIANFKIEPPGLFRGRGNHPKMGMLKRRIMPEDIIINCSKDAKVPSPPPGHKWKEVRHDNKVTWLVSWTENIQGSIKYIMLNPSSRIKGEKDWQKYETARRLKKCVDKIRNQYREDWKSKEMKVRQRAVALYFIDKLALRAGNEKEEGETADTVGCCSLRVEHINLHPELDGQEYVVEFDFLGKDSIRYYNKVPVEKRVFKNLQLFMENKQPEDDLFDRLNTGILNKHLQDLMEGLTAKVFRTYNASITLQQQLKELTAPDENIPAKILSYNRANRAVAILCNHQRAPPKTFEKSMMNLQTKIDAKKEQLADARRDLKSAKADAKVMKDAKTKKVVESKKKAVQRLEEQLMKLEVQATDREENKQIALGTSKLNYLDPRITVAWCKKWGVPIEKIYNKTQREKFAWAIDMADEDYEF

CNCCCn1c2c(c3ccc([N+](=O)[O-])cc3c1=O)C(=O)c1cc(OC)cnc1-2 [Compound 10]
GI50 ([1]; 786-0, Renal Cancer, 786-0): 0.04 µM
GI50 ([1]; A498, Renal Cancer, A498): 0.03 µM
GI50 ([1]; A549, Non-Small Cell Lung Cancer, A549/ATCC): 0.07 µM
GI50 ([1]; ACHN, Renal Cancer, ACHN): 0.04 µM
GI50 ([1]; BT-549, Breast Cancer, BT-549): 0.37 µM
GI50 ([1]; CAKI-1, Renal Cancer, CAKI-1): 0.03 µM
GI50 ([1]; CCRF-CEM, Leukemia, CCRF-CEM): 0.04 µM
GI50 ([1]; COLO 205, Colon Cancer, COLO 205): 0.06 µM
GI50 ([1]; DU-145, Prostate Cancer, DU-145): 0.05 µM
GI50 ([1]; EKVX, Non-Small Cell Lung Cancer, EKVX): 0.27 µM
GI50 ([1]; HCC 2998, Colon Cancer, HCC-2998): 0.2 µM
GI50 ([1]; HCT-15, Colon Cancer, HCT-15): 0.12 µM
GI50 ([1]; HCT-116, Colon Cancer, HCT-116): 0.03 µM
GI50 ([1]; HL-60, Leukemia, HL-60(TB)): 0.04 µM
GI50 ([1]; HOP-92, Non-Small Cell Lung Cancer, HOP-92): 0.24 µM
GI50 ([1]; HT-29, Colon Cancer, HT29): 0.06 µM
GI50 ([1]; Hs-578T, Breast Cancer, HS 578T): 1.17 µM
GI50 ([1]; IGROV-1, Ovarian Cancer, IGROV1): 0.21 µM
GI50 ([1]; K562, Leukemia, K-562): 0.04 µM
GI50 ([1]; KM12, Colon Cancer, KM12): 0.16 µM
GI50 ([1]; LOX IMVI, Melanoma, LOX IMVI): 0.03 µM
GI50 ([1]; Leukemia, SR): 0.01 µM
GI50 ([1]; MCF7, Breast Cancer, MCF7): 0.01 µM
GI50 ([1]; MDA-MB-231, Breast Cancer, MDA-MB-231/ATCC): 0.27 µM
GI50 ([1]; MDA-MB-435, Melanoma, MDA-MB-435): 0.15 µM
GI50 ([1]; MDA-MB-468, Breast Cancer, MDA-MB-468): 0.03 µM
GI50 ([1]; MOLT-4, Leukemia, MOLT-4): 0.03 µM
GI50 ([1]; Malme-3M, Melanoma, MALME-3M): 0.18 µM
GI50 ([1]; Melanoma, M14): 0.04 µM
GI50 ([1]; NCI-H23, Non-Small Cell Lung Cancer, NCI-H23): 0.04 µM
GI50 ([1]; NCI-H226, Non-Small Cell Lung Cancer, NCI-H226): 0.09 µM
GI50 ([1]; NCI-H322M, Non-Small Cell Lung Cancer, NCI-H322M): 0.16 µM
GI50 ([1]; NCI-H460, Non-Small Cell Lung Cancer, NCI-H460): 0.02 µM
GI50 ([1]; NCI-H522, Non-Small Cell Lung Cancer, NCI-H522): 0.08 µM
GI50 ([1]; OVCAR-3, Ovarian Cancer, OVCAR-3): 0.17 µM
GI50 ([1]; OVCAR-4, Ovarian Cancer, OVCAR-4): 0.17 µM
GI50 ([1]; OVCAR-5, Ovarian Cancer, OVCAR-5): 0.14 µM
GI50 ([1]; OVCAR-8, Ovarian Cancer, OVCAR-8): 0.09 µM
GI50 ([1]; Ovarian Cancer, NCl/ADR-RES): 0.06 µM
GI50 ([1]; Prostate Cancer, PC-3): 0.13 µM
GI50 ([1]; RPMI-8226, Leukemia, RPMI-8226): 0.08 µM
GI50 ([1]; RXF 393, Renal Cancer, RXF 393): 0.07 µM
GI50 ([1]; Renal Cancer, U0-31): 0.03 µM
GI50 ([1]; SF-268, CNS Cancer, SF-268): 0.07 µM
GI50 ([1]; SF-295, CNS Cancer, SF-295): 0.03 µM
GI50 ([1]; SF-539, CNS Cancer, SF-539): 0.05 µM
GI50 ([1]; SK-MEL-2, Melanoma, SK-MEL-2): 0.35 µM
GI50 ([1]; SK-MEL-5, Melanoma, SK-MEL-5): 0.11 µM
GI50 ([1]; SK-MEL-28, Melanoma, SK-MEL-28): 0.39 µM
GI50 ([1]; SK-OV-3, Ovarian Cancer, SK-OV-3): 0.06 µM
GI50 ([1]; SN12C, Renal Cancer, SN12C): 0.05 µM
GI50 ([1]; SNB-19, CNS Cancer, SNB-19): 0.04 µM
GI50 ([1]; SNB-75, CNS Cancer, SNB-75): 0.13 µM
GI50 ([1]; SW-620, Colon Cancer, SW-620): 0.03 µM
GI50 ([1]; T47D, Breast Cancer, T-47D): 0.03 µM
GI50 ([1]; TK-10, Renal Cancer, TK-10): 0.32 µM
GI50 ([1]; U-251, CNS Cancer, U251): 0.04 µM
GI50 ([1]; UACC-257, Melanoma, UACC-257): 0.18 µM
mean GI50 across NCI-60 panel (MGM) ([1]; average of GI50 values across the entire panel of NCI-60 cancer cell lines): 74 nM
Top1 Inhibiton [2]: +++ (strong inhibition, +++, MYC expression inhibited at 0.5 to 1.0 μM)
